Results on 14 compounds are retold here after PubChem BioAssay AID328 (DTP/NCI, 2004).

This test has as its system BDF1 mice, P388 leukemia ip, median survival T/C. Description: NCI In Vivo Anticancer Drug Screen. Data for tumor model P388 Leukemia (intraperitoneal) in B6D2F1 (BDF1) mice. The note with it: endpoint: median survival time, higher = longer survival. An outline of the steps:
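T/C = treated-group survival ÷ vehicle-control survival; tumour transplanted into mice before dosing.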

Where [1] appears, read: dose: 25.0 mg/kg/injection, schedule: Q04DX003 (ip), vehicle: saline.
The mark [2] stands for this setting: dose: 50.0 mg/kg/injection, schedule: Q01DX009 (ip), vehicle: saline with Tween-80.
Where [3] appears, read: dose: 100.0 mg/kg/injection, schedule: Q01DX009 (ip), vehicle: saline with Tween-80.
Where [4] appears, read: dose: 200.0 mg/kg/injection, schedule: Q01DX009 (ip), vehicle: saline with Tween-80.
Where [5] appears, read: dose: 100.0 mg/kg/injection, schedule: Q01DX009 (ip), vehicle: Klucel (hydroxypropylcellulose) (HPC).
The mark [6] stands for this setting: dose: 100.0 mg/kg/injection, schedule: Q04DX003 (ip), vehicle: Klucel (hydroxypropylcellulose) (HPC).
The mark [7] stands for this setting: dose: 200.0 mg/kg/injection, schedule: Q01DX009 (ip), vehicle: Klucel (hydroxypropylcellulose) (HPC).
Where [8] appears, read: dose: 200.0 mg/kg/injection, schedule: Q04DX003 (ip), vehicle: Klucel (hydroxypropylcellulose) (HPC).

SMILES strings stand for the structures. Values joined by “and” are separate entries in the source; they are usually repeats but may differ in a detail not shown here. Equal values may be shown once. Inconclusive results and toxic doses are left out.

As for `CCOC(=O)C(OCc1ccccc1)(C(=O)OCC)C(C)C`, the T/C under setting [1] is 115 % of control; the T/C (dose: 50.0 mg/kg/injection, schedule: Q04DX003 (ip), vehicle: saline) was 100 % of control; the T/C (dose: 100.0 mg/kg/injection, schedule: Q04DX003 (ip), vehicle: saline) was 105 % of control.
`O=C(NO)c1cccnc1`: the T/C was 119 % of control (dose: 300.0 mg/kg/injection, schedule: Q01DX010 (ip), vehicle: water); 109 % of control and 118 % of control (dose: 400.0 mg/kg/injection, schedule: Q01DX010 (ip), vehicle: water); 150 % of control and 154 % of control (dose: 600.0 mg/kg/injection, schedule: Q01DX010 (ip), vehicle: water).
For `Cc1ccc(N2CCOC2=O)cc1N1CCOC1=O`, the T/C is, setting by setting: (dose: 25.0 mg/kg/injection, schedule: Q01DX009 (ip), vehicle: other) 100 % of control; (dose: 25.0 mg/kg/injection, schedule: Q04DX003 (ip), vehicle: other) 109 % of control; (dose: 50.0 mg/kg/injection, schedule: Q01DX009 (ip), vehicle: other) 100 % of control; (dose: 50.0 mg/kg/injection, schedule: Q04DX003 (ip), vehicle: other) 100 % of control; (dose: 100.0 mg/kg/injection, schedule: Q01DX009 (ip), vehicle: other) 109 % of control; (dose: 100.0 mg/kg/injection, schedule: Q04DX003 (ip), vehicle: other) 100 % of control.
For the compound `O=S(=O)(O)CCO`, the T/C is 92 % of control (dose: 200.0 mg/kg/injection, schedule: Q01DX009 (ip), vehicle: saline) and 100 % of control (dose: 400.0 mg/kg/injection, schedule: Q01DX009 (ip), vehicle: saline).
For `O=C1CCc2c(Br)cccc21`, the T/C runs as follows: (dose: 100.0 mg/kg/injection, schedule: Q04DX003 (ip), vehicle: saline with Tween-80) 110 % of control; (dose: 200.0 mg/kg/injection, schedule: Q04DX003 (ip), vehicle: saline with Tween-80) 115 % of control; (dose: 400.0 mg/kg/injection, schedule: Q04DX003 (ip), vehicle: saline with Tween-80) 110 % of control.
For `Cc1cccn2c(CCc3nnc4c(C)cccn34)nnc12`, the T/C runs as follows: under setting [2], 97 % of control; under setting [3], 93 % of control; under setting [4], 89 % of control.
`O=C1NNC2CCCCC2O1` (configuration not stated): the T/C under setting [2] is 94 % of control and the T/C under setting [3] was 90 % of control.
Regarding `O=C1c2ccccc2S(=O)(=O)N1CCN1C(=O)c2ccccc2S1(=O)=O`, the T/C runs as follows: under setting [5], 100 % of control; under setting [6], 95 % of control; under setting [7], 100 % of control; under setting [8], 100 % of control; (dose: 400.0 mg/kg/injection, schedule: Q01DX009 (ip), vehicle: Klucel (hydroxypropylcellulose) (HPC)) 90 % of control; (dose: 400.0 mg/kg/injection, schedule: Q04DX003 (ip), vehicle: Klucel (hydroxypropylcellulose) (HPC)) 100 % of control.
Consider `COc1c(C)c2c(c(O)c1C/C=C(\C)CCC(=O)O)C(=O)OC2`, for which the T/C by setting is: (dose: 25.0 mg/kg/injection, schedule: Q01DX010 (ip), vehicle: saline) 112 % of control and 100 % of control; (dose: 50.0 mg/kg/injection, schedule: Q01DX010 (ip), vehicle: saline) 104 % of control and 118 % of control; (dose: 100.0 mg/kg/injection, schedule: Q01DX010 (ip), vehicle: saline) 116 % of control and 100 % of control; (dose: 100.0 mg/kg/injection, schedule: Q04DX002 (ip), vehicle: Klucel (hydroxypropylcellulose) (HPC)) 100 % of control; (dose: 200.0 mg/kg/injection, schedule: Q01DX010 (ip), vehicle: saline) 100 % of control and 118 % of control; (dose: 200.0 mg/kg/injection, schedule: Q04DX002 (ip), vehicle: Klucel (hydroxypropylcellulose) (HPC)) 100 % of control. The T/C (dose: 400.0 mg/kg/injection, schedule: Q04DX002 (ip), vehicle: Klucel (hydroxypropylcellulose) (HPC)) is 116 % of control.
As to `CCC1CC2CC(c3cc4c(cc3OC)N(C)C3C(O)(C(=O)OC)C(OC(C)=O)C5(CC)C=CCN6CCC43C65)c3[nH]c4ccccc4c3CCN(C1)C2` (configuration not stated), the T/C reads like this: (dose: 0.03 mg/kg/injection, schedule: Q01DX009 (ip), vehicle: water) 181 % of control; (dose: 0.06 mg/kg/injection, schedule: Q01DX009 (ip), vehicle: water) 100 % of control; (dose: 0.12 mg/kg/injection, schedule: Q01DX009 (ip), vehicle: water) 100 % of control; (dose: 0.25 mg/kg/injection, schedule: Q01DX009 (ip), vehicle: water) 90 % of control and 95 % of control; (dose: 0.25 mg/kg/injection, schedule: Q04DX003 (ip), vehicle: water) 90 % of control; (dose: 0.5 mg/kg/injection, schedule: Q01DX009 (ip), vehicle: water) 100 % of control and 104 % of control. Besides, the T/C was 95 % of control (dose: 0.5 mg/kg/injection, schedule: Q04DX003 (ip), vehicle: water); 109 % of control (dose: 1.0 mg/kg/injection, schedule: Q01DX009 (ip), vehicle: water); 95 % of control (dose: 1.0 mg/kg/injection, schedule: Q04DX003 (ip), vehicle: water); 104 % of control (dose: 2.0 mg/kg/injection, schedule: Q01DX009 (ip), vehicle: water); 95 % of control (dose: 4.0 mg/kg/injection, schedule: Q04DX003 (ip), vehicle: water); 90 % of control (dose: 6.0 mg/kg/injection, schedule: Q04DX003 (ip), vehicle: water). The T/C was 104 % of control (dose: 5.0 micrograms/kg/injection, schedule: Q01DX009 (ip), vehicle: water); 102 % of control (dose: 10.0 micrograms/kg/injection, schedule: Q01DX009 (ip), vehicle: water); 90 % of control (dose: 20.0 micrograms/kg/injection, schedule: Q01DX009 (ip), vehicle: water); 100 % of control (dose: 40.0 micrograms/kg/injection, schedule: Q01DX009 (ip), vehicle: water); 92 % of control (dose: 80.0 micrograms/kg/injection, schedule: Q01DX009 (ip), vehicle: water).
As for `O=C(O)CNC(=O)COc1ccc(Cl)c(Cl)c1`, the T/C runs as follows: under setting [2], 94 % of control; under setting [3], 92 % of control; under setting [4], 124 % of control.
Turning to `COC1=C(N=[N+]=[N-])C(=O)C(OC)=C(N=[N+]=[N-])C1=O`, the T/C is 100 % of control (dose: 10.0 mg/kg/injection, schedule: Q04DX003 (ip), vehicle: saline); 100 % of control (dose: 20.0 mg/kg/injection, schedule: Q04DX003 (ip), vehicle: saline); 114 % of control (dose: 22.5 mg/kg/injection, schedule: Q01DX009 (ip), vehicle: saline); 108 % of control (dose: 40.0 mg/kg/injection, schedule: Q04DX003 (ip), vehicle: saline); 123 % of control (dose: 45.0 mg/kg/injection, schedule: Q01DX009 (ip), vehicle: saline); 114 % of control (dose: 90.0 mg/kg/injection, schedule: Q01DX009 (ip), vehicle: saline). For the same compound, where the note is “dose: 90.0 mg/kg/injection, schedule: Q04DX003 (ip), vehicle: saline”, the T/C is 122 % of control.
For `CCOC(=O)C(=Cc1ccc(C=C(C(=O)OCC)C(=O)OCC)cc1)C(=O)OCC`, the T/C reads like this: (dose: 50.0 mg/kg/injection, schedule: Q01DX009 (ip), vehicle: Klucel (hydroxypropylcellulose) (HPC)) 110 % of control; under setting [5], 105 % of control; under setting [6], 91 % of control; under setting [7], 95 % of control; under setting [8], 91 % of control.
Consider `O=C1NC(c2ccccc2)(c2ccccc2)C(=O)N1CCS`, for which the T/C by setting is: (dose: 6.25 mg/kg/injection, schedule: Q01DX009 (ip), vehicle: saline) 89 % of control and 122 % of control; (dose: 12.5 mg/kg/injection, schedule: Q01DX009 (ip), vehicle: saline) 104 % of control and 107 % of control; (dose: 25.0 mg/kg/injection, schedule: Q01DX009 (ip), vehicle: saline) 106 % of control and 116 % of control; under setting [1], 98 % of control; (dose: 50.0 mg/kg/injection, schedule: Q01DX009 (ip), vehicle: saline) 95 % of control and 105 % of control.
